Laboratory results reported in US20100311729A1, “Substituted imidazopyridazines and pyrrolopyrimidines as lipid kinase inhibitors” (priority 2007, published 2010).

Tests used:
Assay type in all cases: biochemical
PI3K alfa = biological target: T1, PI3K alfa (Homo sapiens, UniProt P42336); experiment: PI3 kinase assay (Kinase-Glo luminescence), PI3K alfa; settings: Enzymatic Data; read-out: PI3K alfa IC50 [umol]
T1 construct: for the p110-a subunit (with a deletion of the first 20 amino acids); His tag (C); made in house; host or cells: baculovirus; Tn5 (Trichoplusia ni) or TiniPro insect cells
Outline: (§1)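 Recombinant PI3K constructs (alfa 10 nM, delta 10 nM, gamma 150 nM) with 1 μM ATP and 10 μg/mL phosphatidylinositol in Tris pH 7.5, MgCl2, NaCl, CHAPS, DTT; 60 min (alfa, delta) or 120 min (gamma) at room temperature. ATP depletion read by Kinase-Glo luminescence; IC50 from 4-parameter logistic fit over 8 concentrations.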

PI3K beta = biological target: T2, PI3K beta (Homo sapiens, UniProt P42338); experiment: PI3 kinase assay (Kinase-Glo luminescence), PI3K beta; settings: Enzymatic Data; read-out: PI3K beta IC50 [umol]
T2 construct: for the full-length p110-b subunit are generated and fused by overlapping PCR; His tag (C); made in house; host or cells: baculovirus; Tn5 (Trichoplusia ni) or TiniPro insect cells
Outline: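 PI3Kβ (25 nM, BV-949) with 10 μg/mL phosphatidylinositol in Tris pH 7.5/MgCl2/NaCl/CHAPS/DTT buffer; reaction started with 1 μM ATP, 60 min at room temperature. ATP depletion read by Kinase-Glo luminescence; 8-point dilutions, IC50 by four-parameter logistic fit.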

PI3K delta = biological target: T3, PI3K delta (Homo sapiens, UniProt O00329); experiment: PI3 kinase assay (Kinase-Glo luminescence), PI3K delta; settings: Enzymatic Data; read-out: PI3K delta IC50 [umol]
T3 construct: for the full-length p110-d subunit are generated and fused by overlapping PCR; His tag (C); made in house; host or cells: baculovirus; Tn5 (Trichoplusia ni) or TiniPro insect cells
Outline: as §1

PI3K gamma = biological target: T4, PI3K gamma (Homo sapiens, UniProt P48736); experiment: PI3 kinase assay (Kinase-Glo luminescence), PI3K gamma; settings: Enzymatic Data; read-out: PI3K gamma IC50 [umol]
T4 construct: PI3Kγ BV-950 p110g(D144aa)-C-Term His Tag; His tag (C); made in house; host or cells: construct from the Roger Williams lab (MRC LMB) in pVL1393; baculovirus; Tn5 (Trichoplusia ni) or TiniPro insect cells
Outline: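 Percent inhibition at eight concentrations (typically 10 to 0.003 […]) fitted to a four-parameter logistic model to give IC50. Reaction initiated with ATP; final ATP 1 μM and phosphatidylinositol 10 μg/mL; ATP consumption read by Kinase-Glo luminescence.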

T3 sequence (O00329 with tags, fused parts or gaps limits assumed): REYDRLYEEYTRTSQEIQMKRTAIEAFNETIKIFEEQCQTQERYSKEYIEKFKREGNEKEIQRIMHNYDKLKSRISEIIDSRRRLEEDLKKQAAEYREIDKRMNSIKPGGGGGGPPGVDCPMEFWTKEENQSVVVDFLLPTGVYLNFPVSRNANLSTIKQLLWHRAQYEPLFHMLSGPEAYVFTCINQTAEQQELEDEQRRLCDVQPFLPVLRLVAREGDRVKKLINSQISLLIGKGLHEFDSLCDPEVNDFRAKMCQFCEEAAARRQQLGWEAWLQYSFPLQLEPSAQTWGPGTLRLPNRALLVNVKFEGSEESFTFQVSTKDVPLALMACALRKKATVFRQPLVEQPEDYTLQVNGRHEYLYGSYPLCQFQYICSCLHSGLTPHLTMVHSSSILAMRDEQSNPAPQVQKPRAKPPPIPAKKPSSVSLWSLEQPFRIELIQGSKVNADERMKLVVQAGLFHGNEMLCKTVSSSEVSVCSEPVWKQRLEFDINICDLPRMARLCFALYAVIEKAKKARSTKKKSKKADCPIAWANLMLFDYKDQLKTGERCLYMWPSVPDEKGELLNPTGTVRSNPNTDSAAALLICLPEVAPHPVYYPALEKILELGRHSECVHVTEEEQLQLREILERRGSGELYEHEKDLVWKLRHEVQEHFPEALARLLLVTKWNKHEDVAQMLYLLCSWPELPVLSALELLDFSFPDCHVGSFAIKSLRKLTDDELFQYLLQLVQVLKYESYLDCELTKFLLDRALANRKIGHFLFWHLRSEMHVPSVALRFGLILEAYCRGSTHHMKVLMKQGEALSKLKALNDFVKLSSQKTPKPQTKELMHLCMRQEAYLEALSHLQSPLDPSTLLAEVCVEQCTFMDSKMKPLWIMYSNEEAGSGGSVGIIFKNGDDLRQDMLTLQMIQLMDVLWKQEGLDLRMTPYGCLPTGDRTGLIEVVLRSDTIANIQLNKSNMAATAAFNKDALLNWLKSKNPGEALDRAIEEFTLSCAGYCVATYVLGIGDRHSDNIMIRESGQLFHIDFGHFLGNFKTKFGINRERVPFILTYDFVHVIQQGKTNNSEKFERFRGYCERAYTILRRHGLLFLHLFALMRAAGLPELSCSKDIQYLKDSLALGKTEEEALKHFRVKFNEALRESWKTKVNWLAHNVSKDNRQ
T1 sequence (P42336 with tags, fused parts or gaps limits assumed): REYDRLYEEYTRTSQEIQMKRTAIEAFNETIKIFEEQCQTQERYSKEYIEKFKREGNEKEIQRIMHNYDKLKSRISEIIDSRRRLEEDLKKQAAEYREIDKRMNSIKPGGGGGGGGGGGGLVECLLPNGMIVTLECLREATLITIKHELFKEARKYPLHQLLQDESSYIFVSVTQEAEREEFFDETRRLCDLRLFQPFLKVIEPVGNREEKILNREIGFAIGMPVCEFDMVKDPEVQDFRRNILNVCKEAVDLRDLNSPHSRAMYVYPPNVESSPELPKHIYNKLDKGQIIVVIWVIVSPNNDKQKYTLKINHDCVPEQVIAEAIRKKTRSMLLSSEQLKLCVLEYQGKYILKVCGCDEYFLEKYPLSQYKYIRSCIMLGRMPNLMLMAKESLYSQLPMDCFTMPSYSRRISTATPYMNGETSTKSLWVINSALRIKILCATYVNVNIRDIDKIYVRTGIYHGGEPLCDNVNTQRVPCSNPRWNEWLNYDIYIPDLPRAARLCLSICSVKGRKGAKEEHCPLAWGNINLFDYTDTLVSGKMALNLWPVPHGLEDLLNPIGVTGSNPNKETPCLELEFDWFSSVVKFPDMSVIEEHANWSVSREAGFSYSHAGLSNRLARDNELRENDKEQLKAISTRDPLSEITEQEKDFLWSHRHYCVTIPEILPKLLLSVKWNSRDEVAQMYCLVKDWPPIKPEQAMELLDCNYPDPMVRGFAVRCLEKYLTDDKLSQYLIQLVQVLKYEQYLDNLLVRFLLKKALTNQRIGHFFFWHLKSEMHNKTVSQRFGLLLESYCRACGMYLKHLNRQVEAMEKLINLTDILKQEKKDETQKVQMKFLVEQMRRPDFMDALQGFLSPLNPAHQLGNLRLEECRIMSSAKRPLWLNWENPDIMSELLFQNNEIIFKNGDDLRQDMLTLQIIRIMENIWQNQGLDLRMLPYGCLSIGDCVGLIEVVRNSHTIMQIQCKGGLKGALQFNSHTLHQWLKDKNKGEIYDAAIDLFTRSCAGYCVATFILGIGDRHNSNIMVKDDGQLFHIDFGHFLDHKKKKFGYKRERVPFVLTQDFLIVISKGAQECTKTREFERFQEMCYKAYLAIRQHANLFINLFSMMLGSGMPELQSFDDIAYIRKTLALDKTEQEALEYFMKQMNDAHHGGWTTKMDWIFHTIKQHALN
T4 sequence (P48736 144-1102 limits assumed): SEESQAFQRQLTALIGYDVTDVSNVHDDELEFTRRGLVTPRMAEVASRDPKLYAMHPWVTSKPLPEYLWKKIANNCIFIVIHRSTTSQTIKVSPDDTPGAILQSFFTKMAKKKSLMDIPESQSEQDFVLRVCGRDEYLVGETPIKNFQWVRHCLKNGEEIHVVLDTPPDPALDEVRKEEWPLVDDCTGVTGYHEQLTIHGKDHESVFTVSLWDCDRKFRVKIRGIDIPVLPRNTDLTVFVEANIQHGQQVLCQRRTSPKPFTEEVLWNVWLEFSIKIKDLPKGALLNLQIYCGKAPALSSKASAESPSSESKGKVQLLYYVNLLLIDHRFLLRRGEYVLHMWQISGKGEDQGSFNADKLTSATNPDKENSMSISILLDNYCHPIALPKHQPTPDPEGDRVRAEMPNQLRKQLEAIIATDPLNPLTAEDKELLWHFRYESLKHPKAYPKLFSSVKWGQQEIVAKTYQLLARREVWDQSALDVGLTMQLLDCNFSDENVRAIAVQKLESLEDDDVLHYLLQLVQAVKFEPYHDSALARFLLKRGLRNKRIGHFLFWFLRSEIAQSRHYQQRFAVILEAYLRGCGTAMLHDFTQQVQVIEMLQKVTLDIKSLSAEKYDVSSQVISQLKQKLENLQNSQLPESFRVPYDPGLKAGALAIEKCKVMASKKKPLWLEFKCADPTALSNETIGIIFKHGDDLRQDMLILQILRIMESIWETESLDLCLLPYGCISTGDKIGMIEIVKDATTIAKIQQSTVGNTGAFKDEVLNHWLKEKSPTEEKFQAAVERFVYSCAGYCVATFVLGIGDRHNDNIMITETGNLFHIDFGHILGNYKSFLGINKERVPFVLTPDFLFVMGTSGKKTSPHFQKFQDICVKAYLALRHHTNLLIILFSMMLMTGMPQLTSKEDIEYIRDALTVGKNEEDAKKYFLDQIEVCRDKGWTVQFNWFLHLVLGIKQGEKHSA
T2 sequence (P42338 with tags, fused parts or gaps limits assumed): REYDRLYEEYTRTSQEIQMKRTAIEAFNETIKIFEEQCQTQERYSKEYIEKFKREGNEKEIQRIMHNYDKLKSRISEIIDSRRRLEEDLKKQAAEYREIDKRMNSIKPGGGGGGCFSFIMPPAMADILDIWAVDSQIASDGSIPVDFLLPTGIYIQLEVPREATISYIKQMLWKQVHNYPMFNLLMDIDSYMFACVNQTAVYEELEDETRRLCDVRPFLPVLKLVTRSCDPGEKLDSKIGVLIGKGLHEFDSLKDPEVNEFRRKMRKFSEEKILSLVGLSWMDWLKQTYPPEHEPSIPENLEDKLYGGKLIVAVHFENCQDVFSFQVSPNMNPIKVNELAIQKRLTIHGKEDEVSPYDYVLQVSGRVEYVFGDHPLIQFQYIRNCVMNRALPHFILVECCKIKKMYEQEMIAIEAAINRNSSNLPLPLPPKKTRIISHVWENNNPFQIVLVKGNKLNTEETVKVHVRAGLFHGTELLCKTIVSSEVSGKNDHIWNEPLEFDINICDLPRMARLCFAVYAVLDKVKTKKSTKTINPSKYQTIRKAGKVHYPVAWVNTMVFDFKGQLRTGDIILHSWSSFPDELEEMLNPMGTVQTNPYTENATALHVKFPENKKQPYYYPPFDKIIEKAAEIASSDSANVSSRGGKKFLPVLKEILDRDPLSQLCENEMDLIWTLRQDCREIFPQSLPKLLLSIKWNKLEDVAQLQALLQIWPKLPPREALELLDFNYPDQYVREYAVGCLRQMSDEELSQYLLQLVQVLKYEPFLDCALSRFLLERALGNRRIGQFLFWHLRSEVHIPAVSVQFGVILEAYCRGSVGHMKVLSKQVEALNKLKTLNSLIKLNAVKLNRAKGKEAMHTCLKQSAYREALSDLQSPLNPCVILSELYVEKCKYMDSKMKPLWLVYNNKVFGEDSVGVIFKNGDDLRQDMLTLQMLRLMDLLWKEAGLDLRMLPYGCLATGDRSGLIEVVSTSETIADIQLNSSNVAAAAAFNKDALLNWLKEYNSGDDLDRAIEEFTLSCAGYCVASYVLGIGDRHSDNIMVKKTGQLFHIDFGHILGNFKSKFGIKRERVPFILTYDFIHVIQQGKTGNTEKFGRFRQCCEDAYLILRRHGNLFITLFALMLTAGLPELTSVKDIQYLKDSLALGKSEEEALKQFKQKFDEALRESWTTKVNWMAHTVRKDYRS

| Structure (SMILES) | IC50 (PI3K alfa) [nM] | IC50 (PI3K beta) [nM] | IC50 (PI3K delta) [nM] | IC50 (PI3K gamma) [nM] |
| --- | --- | --- | --- | --- |
| CN(C)CCN1CCN(C(=O)c2ccc(-c3cnc4ccc(-c5cnc(N)c(C(F)(F)F)c5)nn34)cc2)CC1 [Example 132, {4-[6-(6-Amino-5-trifluoro-methyl-pyridin-3-yl)-imidazo [1,2-b]pyridazin-3-yl]-phenyl}-[4-(2-dimethyl-amino-ethyl)-piperazin-1-yl]-methanone] | 26 | 1260 | 52 | 2020 |
| CNc1ncc(-c2cnc3ccc(-c4cnc(N)c(C(F)(F)F)c4)nn23)cn1 [Example 87, {5-[6-(6-Amino-5-trifluoro-methyl-pyridin-3-yl)-imidazo [1,2-b]pyridazin-3-yl]-pyrimidin-2-yl)-methylamine] | 29 | 10 | 18 | 1230 |
| Nc1ncc(-c2cnc3ccc(-c4ccc(OCCn5cccn5)cc4)nn23)cc1C(F)(F)F [Example 92, 5-{6-[4-(2-Pyrazol-1-yl-ethoxy)-phenyl]-imidazo [1,2-b]pyridazin-3-yl}-3-trifluoro-methyl-pyridin-2-ylamine] | 573 | 4110 | 1240 | > 9100 |
| NCCn1cc(-c2ccc3ncc(-c4cnc(N)c(C(F)(F)F)c4)n3n2)ccc1=O [Example 70, 1-(2-Amino-ethyl)-5-[3-(6-amino-5-trifluoro-methyl-pyridin-3-yl)-imidazo [1,2-b]pyridazin-6-yl]-1H-pyridin-2-one] | 58 | 49 | 63 | 491 |
| Nc1ccc(-c2cnc3ccc(-c4ccc(OCCCNC(=O)C5CC5)cc4)nn23)cn1 [Example 129, Cyclo-propane-carboxylic acid (3-{4-[3-(6-amino-pyridin-3-yl)-imidazo [1,2-b]pyridazin-6-yl]-phenoxy}-propyl)-amide] | 223 | 4140 | 676 | 2020 |
| Nc1ncc(-c2cnc3ccc(-c4ccc(OCCN5CCCC5=O)cc4)nn23)cc1C(F)(F)F [Example 97, 1-(2-{4-[3-(6-Amino-5-trifluoro-methyl-pyridin-3-yl)-imidazo [1,2-b]pyridazin-6-yl]-phenoxy}-ethyl)-pyrrolidin-2-one] | 75 | 1550 | 56 | 1020 |
| Nc1ncc(-c2ccc3ncc(-c4ccc(C(=O)NCCn5ccnc5)cc4)n3n2)cc1C(F)(F)F [Example 150, 4-[6-(6-Amino-5-trifluoro-methyl-pyridin-3-yl)-imidazo [1,2-b]pyridazin-3-yl]-N-{2-imidazol-1-yl-ethyl)-benzamide] | 13 | 132 | 31 | > 9100 |
| Nc1ncc(-c2ccc3ncc(-c4ccc(OCCCNC(=O)C5CC5)cc4)n3n2)cc1C(F)(F)F [Example 142, Cyclo-propane-carboxylic acid (3-{4-[6-(6-amino-5-trifluoro-methyl-pyridin-3-yl)-imidazo [1,2-b]pyridazin-3-yl]-phenoxy}-propyl)-amide] | 45 | 3160 | 319 | > 9100 |
| Nc1ncc(-c2ccc3ncc(-c4ccc(C(=O)NCCN5CCOCC5)cc4F)n3n2)cc1C(F)(F)F [Example 151, 4-[6-(6-Amino-5-trifluoro-methyl-pyridin-3-yl)-imidazo [1,2-b]pyridazin-3-yl]-3-fluoro-N-(2-morpholin-4-yl-ethyl)-benzamide] | 8 | 141 | 27 | 946 |
| COc1cc(-c2cnc3ccc(-c4cnc(N)c(C(F)(F)F)c4)nn23)c(F)cc1C(=O)NCCn1ccnc1 [Example 161, 4-[6-(6-Amino-5-trifluoro-methyl-pyridin-3-yl)-imidazo (1,2-b]pyridazin-3-yl]-5-fluoro-N-(2-imidazol-1-yl-ethyl)-2-methoxy-benzamide] | 3 | 28 | 9 | 2400 |
| Nc1ncc(-c2cnc3ccc(-c4ccc(OCCCNC(=O)C5CC5)nc4)nn23)cc1C(F)(F)F [Example 177, Cyclo-propane-carboxylic acid (3-{5-[3-(6-amino-5-trifluoro-methyl-pyridin-3-yl)-imidazo [1,2-b]pyridazin-6-yl]-pyridin-2-yloxy}-propyl)-amide] | 11 | 331 | 92 | > 9100 |

Continued by falling IC50 (PI3K alfa), values first:

| IC50 (PI3K alfa) [nM] | IC50 (PI3K beta) [nM] | IC50 (PI3K delta) [nM] | IC50 (PI3K gamma) [nM] | Structure (SMILES) |
| --- | --- | --- | --- | --- |
| 1120 | 6790 | 2440 | > 9100 | COc1ccc(-c2ccc3ncc(-c4cnc(N)c(C(F)(F)F)c4)n3n2)cc1F [Example 48, 5-[6-(3-Fluoro-4-methoxy-phenyl)-imidazo [1,2-b]pyridazin-3-yl]-3-trifluoro-methyl-pyridin-2-ylamine] |
| 562 | > 9100 | 6810 | 316 | CC(C)C(=O)NCCCOc1ccc(-c2ccc3ncc(-c4cnc(N)c(C(F)(F)F)c4)n3n2)cc1OC(F)(F)F [Example 64, N-(3-{4-[3-(6-Amino-5-trifluoro-methyl-pyridin-3-yl)-imidazo [1,2-b]pyridazin-6-yl]-2-trifluoro-methoxy-phenoxy}-propyl)-iso-butyramide] |
| 297 | 2220 | 336 | 3500 | COc1ccc(-c2ccc3ncc(-c4ccc(NS(C)(=O)=O)cc4)n3n2)cc1OC [Example 44, N-{4-[6-(3,4-Dimethoxy-phenyl)-imidazo [1,2-b]pyridazin-3-yl]-phenyl}-methane-sulfonamide] |
| 203 | 183 | 167 | 56 | NCCCOc1ccc(-c2ccc3ncc(-c4cnc(N)c(C(F)(F)F)c4)n3n2)cc1 [Example 56, 5-{6-[4-(3-Amino-propoxy)-phenyl]-imidazo [1,2-b]pyridazin-3-yl}-3-trifluoro-methyl-pyridin-2-ylamine] |
| 154 | 378 | 282 | 7070 | CS(=O)(=O)Nc1ccc(-c2cnc3ccc(-c4cnc(N)c(C(F)(F)F)c4)nn23)cc1 [Example 45, N-{4-[6-(6-Amino-5-trifluoro-methyl-pyridin-3-yl)-imidazo [1,2-b]pyridazin-3-yl]-phenyl}-methane-sulfonamide] |
| 147 | 274 | 231 | 814 | Nc1ncc(-c2ccc3ncc(-c4cncc(C(F)(F)F)c4)n3n2)cc1C(F)(F)F [Example 54, 3-Trifluoro-methyl-5-[3-(5-trifluoro-methyl-pyridin-3-yl)-imidazo [1,2-b]pyridazin-6-yl]-pyridin-2-ylamine] |
| 87 | 5560 | 308 | 3240 | CC(=O)c1ccc(CNC(=O)c2ccc(-c3cnc4ccc(-c5cnc(N)c(C(F)(F)F)c5)nn34)cc2)cc1 [Example 84, N-(4-Acetyl-benzyl)-4-[6-(6-amino-5-trifluoromethyl-pyridin-3-yl)-imidazo [1,2-b]pyridazin-3-yl]-benzamide] |
| 50 | 204 | 41 | 556 | COc1cc(-c2ccc3ncc(-c4cnc(N)c(C(F)(F)F)c4)n3n2)ccc1OC1CCNCC1 [Example 166, 5-{6-(3-Methoxy-4-(piperidin-4-yloxy)-phenyl]-imidazo [1,2-b]pyridazin-3-yl}-3-trifluoro-methyl-pyridin-2-ylamine] |
| 49 | 185 | 61 | 480 | Nc1ncc(-c2ccc3ncc(-c4ccc(OCCCN5CCOCC5)cc4)n3n2)cc1C(F)(F)F [Example 171, 5-{3-[4-(3-Morpholin-4-yl-propoxy)-phenyl]-imidazo [1,2-b]pyridazin-6-yl}-3-trifluoro-methyl-pyridin-2-ylamine] |
| 24 | 19 | 26 | 3310 | Nc1ncc(-c2ccc3ncc(-c4ccc(S(N)(=O)=O)cc4)n3n2)cc1C(F)(F)F [Example 121, 4-[6-(6-Amino-5-trifluoro-methyl-pyridin-3-yl)-imidazo [1,2-b]pyridazin-3-yl]-benzene-sulfon-amide] |
| 24 | 463 | 18 | 362 | Nc1ncc(-c2ccc3ncc(-c4ccc(S(=O)(=O)CCN5CCOCC5)cc4)n3n2)cc1C(F)(F)F [Example 105, 5-{3-[4-(2-Morpholin-4-yl-ethane-sulfonyl)-phenyl]-imidazo [1,2-b]pyridazin-6-yl}-3-trifluoro-methyl-pyridin-2-ylamine] |
